Patent US9708334B2, “Substituted 2,4,5,6-tetrahydropyrrolo[3,4-c]pyrazole and 4,5,6,7-tetrahydro-2H-pyrazolo[4,3-c]pyridine compounds as GlyT1 inhibitors” (DART NEUROSCIENCE (CAYMAN) LTD., priority 2014, dated 2017)

Target: T1, GlyT1 (Homo sapiens, UniProt P48067)
T1 construct: expressed in transfected cells
T1 sequence (P48067 1-706): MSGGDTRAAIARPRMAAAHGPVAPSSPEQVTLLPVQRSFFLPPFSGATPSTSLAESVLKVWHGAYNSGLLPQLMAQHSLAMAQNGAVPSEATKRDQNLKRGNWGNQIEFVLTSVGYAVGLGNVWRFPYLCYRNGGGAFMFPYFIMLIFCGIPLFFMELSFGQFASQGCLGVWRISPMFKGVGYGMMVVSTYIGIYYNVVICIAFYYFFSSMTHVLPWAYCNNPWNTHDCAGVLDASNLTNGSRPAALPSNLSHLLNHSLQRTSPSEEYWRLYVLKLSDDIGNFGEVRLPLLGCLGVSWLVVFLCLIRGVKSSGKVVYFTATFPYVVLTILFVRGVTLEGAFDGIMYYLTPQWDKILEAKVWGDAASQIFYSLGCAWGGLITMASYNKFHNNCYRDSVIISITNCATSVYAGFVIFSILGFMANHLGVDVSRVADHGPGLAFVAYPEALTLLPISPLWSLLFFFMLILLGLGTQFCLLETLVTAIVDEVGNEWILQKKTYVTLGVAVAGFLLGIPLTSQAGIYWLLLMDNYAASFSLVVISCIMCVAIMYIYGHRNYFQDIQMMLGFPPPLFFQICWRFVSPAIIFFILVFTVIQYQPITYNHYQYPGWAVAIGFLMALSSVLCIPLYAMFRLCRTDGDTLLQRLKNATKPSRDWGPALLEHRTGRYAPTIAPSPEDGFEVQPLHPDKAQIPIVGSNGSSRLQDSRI
Test: Glycine Transporter 1 (GlyT1) uptake assay, scintillation proximity assay of [14C]-glycine uptake
Type: cell-based
Settings: SPA, four parameter logistic fit, read-out: GlyT1 (pIC50) (converted)
How it was run: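 [14C]-glycine uptake read by scintillation proximity on a plate counter. IC50 from four-parameter logistic fit of dose-response data.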

Row | Compound | IC50 [µM]
1 | COc1c(S(C)(=O)=O)ccc(OC(C)C(F)(F)F)c1C(=O)N1CCc2nn(-c3ccc(F)cc3)cc2C1 (stereo not drawn) [Example 198, 2-(4-Fluorophenyl)-5-{3-methanesulfonyl-2-methoxy-6-[(1 1 1-trifluoropropan-2-yl)oxy]benzoyl}-2H 4H 5H 6H 7H-pyrazolo[4,3-c]pyridine] | < 0.1
2 | N#Cc1ccc(C2(F)CCOCC2)c(C(=O)N2CCc3nn(-c4ccc(F)cc4)cc3C2)c1F [Example 199, 2-Fluoro-4-(4-fluorooxan-4-yl)-3-[2-(4-fluorophenyl)-2H 4H 5H 6H 7H-pyrazolo[4,3-c]pyridine-5-carbonyl]benzonitrile] | 1 to 10
3 | CC(Oc1ccc(C(=O)N(C)C)c(Cl)c1C(=O)N1CCc2nn(-c3ccc(F)cc3)cc2C1)C(F)(F)F (stereo not drawn) [Example 200, 2-Chloro-3-[2-(4-fluorophenyl)-2H 4H 5H 6H 7H-pyrazolo[4,3-c]pyridine-5-carbonyl]-N N-dimethyl-4-[(1 1 1-trifluoropropan-2-yl)oxy]benzamide] | 1 to 10
4 | CC(Oc1ccc(C#N)c(Cl)c1C(=O)N1CCc2nn(-c3ccc(F)cn3)cc2C1)C(F)(F)F (stereo not drawn) [Example 201, 2-Chloro-3-[2-(5-fluoropyridin-2-yl)-2H 4H 5H 6H 7H-pyrazolo[4,3-c]pyridine-5-carbonyl]-4-[(1 1 1-trifluoropropan-2-yl)oxy]benzonitrile] | 0.1 to 1
5 | COc1c(C#N)ccc(OC(C)C(F)(F)F)c1C(=O)N1CCc2nn(-c3ccc(F)cn3)cc2C1 (stereo not drawn) [Example 202, 3-[2-(5-Fluoropyridin-2-yl)-2H 4H 5H 6H 7H-pyrazolo[4,3-c]pyridine-5-carbonyl]-2-methoxy-4-[(1 1 1-trifluoropropan-2-yl)oxy]benzonitrile] | 0.1 to 1
6 | CC(Oc1ccc(C#N)c(Cl)c1C(=O)N1CCc2nn(C)cc2C1)C(F)(F)F (stereo not drawn) [Example 203, 2-Chloro-3-{2-methyl-2H 4H 5H 6H 7H-pyrazolo[4,3-c]pyridine-5-carbonyl}-4-[(1 1 1-trifluoropropan-2-yl)oxy]benzonitrile] | 1 to 10
7 | COc1c(C#N)ccc(OC(C)C(F)(F)F)c1C(=O)N1CCc2nn(C)cc2C1 (stereo not drawn) [Example 204, 2-Methoxy-3-{2-methyl-2H 4H 5H 6H 7H-pyrazolo[4,3-c]pyridine-5-carbonyl}-4-[(1 1 1-trifluoropropan-2-yl)oxy]benzonitrile] | 0.1 to 1
8 | COc1cccc(-n2cc3c(n2)CCN(C(=O)c2c(OC(C)C(F)(F)F)ccc(C#N)c2Cl)C3)c1 (stereo not drawn) [Example 205, 2-Chloro-3-[2-(3-methoxyphenyl)-2H 4H 5H 6H 7H-pyrazolo[4,3-c]pyridine-5-carbonyl]-4-[(1 1 1-trifluoropropan-2-yl)oxy]benzonitrile] | 0.1 to 1
9 | COc1ccc(-n2cc3c(n2)CCN(C(=O)c2c(OC(C)C(F)(F)F)ccc(C#N)c2Cl)C3)cc1 (stereo not drawn) [Example 206, 2-Chloro-3-[2-(4-methoxyphenyl)-2H 4H 5H 6H 7H-pyrazolo[4,3-c]pyridine-5-carbonyl]-4-[(1 1 1-trifluoropropan-2-yl)oxy]benzonitrile] | 0.1 to 1
10 | COc1ccc(-n2cc3c(n2)CCN(C(=O)c2c(OC(C)C(F)(F)F)ccc(C#N)c2OC)C3)cc1 (stereo not drawn) [Example 207, 2-Methoxy-3-[2-(4-methoxyphenyl)-2H 4H 5H 6H 7H-pyrazolo[4,3-c]pyridine-5-carbonyl]-4-[(1 1 1-trifluoropropan-2-yl)oxy]benzonitrile] | 0.1 to 1
11 | CCC(F)(CC)c1ccc(C#N)c(OC)c1C(=O)N1CCc2nn(-c3ccc(F)cc3)cc2C1 [Example 208] | 1 to 10
12 | COc1c(C#N)ccc(OC(C)C(F)(F)F)c1C(=O)N1CCc2c(cnn2-c2ccc(F)cn2)C1 (stereo not drawn) [Example 209, 3-[1-(5-Fluoropyridin-2-yl)-1H 4H 5H 6H 7H-pyrazolo[4,3-c]pyridine-5-carbonyl]-2-methoxy-4-[(1 1 1-trifluoropropan-2-yl)oxy]benzonitrile] | < 0.1
13 | CC(Oc1ccc(C#N)c(Cl)c1C(=O)N1CCc2c(cnn2-c2ccc(F)cn2)C1)C(F)(F)F (stereo not drawn) [Example 210, 2-Chloro-3-[1-(5-fluoropyridin-2-yl)-1H 4H 5H 6H 7H-pyrazolo[4,3-c]pyridine-5-carbonyl]-4-[(1 1 1-trifluoropropan-2-yl)oxy]benzonitrile] | < 0.1
14 | CC(Oc1ccc(C#N)c(Cl)c1C(=O)N1CCc2nn(-c3cccnc3)cc2C1)C(F)(F)F (stereo not drawn) [Example 211, 2-Chloro-3[2-(pyridin-3-yl)-2H 4H 5H 6H 7H-pyrazolo[4,3-c]pyridine-5-carbonyl]-4-[(1 1 1-trifluoropropan-2-yl)oxy]benzonitrile] | 0.1 to 1
15 | COc1c(C#N)ccc(C2(F)CCC2)c1C(=O)N1CCc2nn(-c3ccc(F)cn3)cc2C1 [Example 212, 4-(1-Fluorocyclobutyl)-3-[2-(5-fluoropyridin-2-yl)-2H 4H 5H 6H 7H-pyrazolo[4,3-c]pyridine-5-carbonyl]-2-methoxybenzonitrile] | 0.1 to 1
16 | COc1c(C#N)ccc(OC(C)C(F)(F)F)c1C(=O)N1CCc2nn(-c3cccnc3)cc2C1 (stereo not drawn) [Example 213, 2-Methoxy-3-[2-(pyridin-3-yl)-2H 4H 5H 6H 7H-pyrazolo[4,3-c]pyridine-5-carbonyl]-4-[(1 1 1-trifluoropropan-2-yl)oxy]benzonitrile] | < 0.1
17 | CC(Oc1ccc(C#N)c(Cl)c1C(=O)N1CCc2c(cnn2C2CCCCC2)C1)C(F)(F)F (stereo not drawn) [Example 214, 2-Chloro-3-{1-cyclohexyl-1H 4H 5H 6H 7H-pyrazolo[4,3-c]pyridine-5-carbonyl}-4-[(1 1 1-trifluoropropan-2-yl)oxy]benzonitrile.] | 0.1 to 1
18 | COc1c(C#N)ccc(OC(C)C(F)(F)F)c1C(=O)N1CCc2c(cnn2C2CCCCC2)C1 (stereo not drawn) [Example 215, 3-{1-Cyclohexyl-1H 4H 5H 6H 7H-pyrazolo[4,3-c]pyridine-5-carbonyl}-2-methoxy-4-[(1 1 1-trifluoropropan-2-yl)oxy]benzonitrile] | < 0.1
19 | CC(Oc1ccc(C#N)c(Cl)c1C(=O)N1CCc2nn(-c3ccccn3)cc2C1)C(F)(F)F (stereo not drawn) [Example 216, 2-Chloro-3-[2-(pyridin-2-yl)-2H 4H 5H 6H 7H-pyrazolo[4,3-c]pyridine-5-carbonyl]-4-[(1 1 1-trifluoropropan-2-yl)oxy]benzonitrile] | 0.1 to 1
20 | COc1c(C#N)ccc(OC(C)C(F)(F)F)c1C(=O)N1CCc2nn(-c3ccccn3)cc2C1 (stereo not drawn) [Example 217, 2-Methoxy-3-[2-(pyridin-2-yl)-2H 4H 5H 6H 7H-pyrazolo[4,3-c]pyridine-5-carbonyl]-4-[(1 1 1-trifluoropropan-2-yl)oxy]benzonitrile] | 0.1 to 1
21 | COc1c(C#N)ccc(OC(C)C(F)(F)F)c1C(=O)N1CCc2c(cnn2-c2cccnc2)C1 (stereo not drawn) [Example 218, 2-Methoxy-3-[1-(pyridin-3-yl)-1H 4H 5H 6H 7H-pyrazolo[4,3-c]pyridine-5-carbonyl]-4-[(1 1 1-trifluoropropan-2-yl)oxy]benzonitrile] | < 0.1
22 | CC(Oc1ccc(C#N)c(Cl)c1C(=O)N1CCc2nn(-c3ccncc3)cc2C1)C(F)(F)F (stereo not drawn) [Example 219, 2-Chloro-3-[2-(pyridin-4-yl)-2H 4H 5H 6H 7H-pyrazolo[4,3-c]pyridine-5-carbonyl]-4-[(1 1 1-trifluoropropan-2-yl)oxy]benzonitrile] | < 0.1
23 | COc1c(C#N)ccc(OC(C)C(F)(F)F)c1C(=O)N1CCc2nn(-c3ccncc3)cc2C1 (stereo not drawn) [Example 220, 2-Methoxy-3-[2-(pyridin-4-yl)-2H 4H 5H 6H 7H-pyrazolo[4,3-c]pyridine-5-carbonyl]-4-[(1 1 1-trifluoropropan-2-yl)oxy]benzonitrile] | < 0.1
24 | COc1c(C#N)ccc(OC(C)C(F)(F)F)c1C(=O)N1CCc2c(cnn2C2CCOCC2)C1 (stereo not drawn) [Example 221, 2-Methoxy-3-[1-(oxan-4-yl)-1H 4H 5H 6H 7H-pyrazolo[4,3-c]pyridine-5-carbonyl]-4-[(1 1 1-trifluoropropan-2-yl)oxy]benzonitrile] | 0.1 to 1
25 | C[C@H](Oc1ccc(C#N)c(Cl)c1C(=O)N1CCc2nn(-c3ccc(F)cn3)cc2C1)C(F)(F)F [Example 222, 2-Chloro-3-[2-(5-fluoropyridin-2-yl)-2H 4H 5H 6H 7H-pyrazolo[4,3-c]pyridine-5-carbonyl]-4-{[(2S)-1 1 1-trifluoropropan-2-yl]oxy}benzonitrile] | 0.1 to 1
26 | N#Cc1ccc(OCC(F)(F)F)c(C(=O)N2CCc3nn(-c4ccc(F)cc4)cc3C2)c1Cl [Example 223, 2-Chloro-3-[2-(4-fluorophenyl)-2H 4H 5H 6H 7H-pyrazolo[4,3-c]pyridine-5-carbonyl]-4-(2 2 2-trifluoroethoxy)benzonitrile] | 1 to 10
27 | N#Cc1ccc(OCC(F)(F)F)c(C(=O)N2CCc3nn(-c4ccc(F)cn4)cc3C2)c1Cl [Example 224, 2-Chloro-3-[2-(5-fluoropyridin-2-yl)-2H 4H 5H 6H 7H-pyrazolo[4,3-c]pyridine-5-carbonyl]-4-(2 2 2-trifluoroethoxy)benzonitrile] | 1 to 10
